Blank lines part the entries; values can stand above or below the molecule they belong to.
Columns and labels:
Type in all cases: cell-based
TYK2 Pseudokinase (JH2) [1] = biological target: T1, TYK2 Pseudokinase (JH2) (Homo sapiens, UniProt P29597); assay: HEK-Blue IFNα/β reporter assay (SEAP) for profiling TYK2 pseudokinase (JH2) inhibition; settings: HEK-Blue IFNα/β cells, 1 ng/mL human recombinant IFNα, read-out: IFNα (TYK2 inhibitory activity, IC50)
Method: (§1) Example B-1: HEK-Blue™ IL-23 and IFNα/β Reporter Assays for Profiling TYK2 Pseudokinase (JH2) Inhibition
(§2) HEK-Blue™ IL-23 and IFNα/β cells with a stably-integrated cytokine receptor and STAT3 or STAT1 express STAT-inducible secreted embryonic alkaline phosphatase (SEAP) reporter gene upon cytokine stimulation. These cells are plated in DMEM (Gibco) containing 10% heat-inactivated FBS (Gibco) and 100 U/mL PenStrep (Gibco) at 37° C. under 5% CO2 conditions for 20-22 hours. The cells are then pretreated with serially diluted test compounds for 60 min prior to stimulation with either 10 ng/mL human recombinant IL-23 (Miltenyl Biotech) or 1 ng/mL human recombinant IFNα (InvivoGen) for 22-24 hours for IL-23 or 16-18 h for IFNα. SEAP induction is measured using the QUANTI Blue™ Solution (InvivoGen) according to the manufacturer's instructions.

TYK2 Pseudokinase (JH2) [2] = biological target: T1, TYK2 Pseudokinase (JH2); assay: HEK-Blue IL-23 reporter assay (SEAP) for profiling TYK2 pseudokinase (JH2) inhibition; set-up: HEK-Blue™ IL-23 and IFNα/β cells with a stably-integrated cytokine receptor and STAT3 or STAT1; endogenous in cells; host or cells: HEK-Blue IL-23 and HEK-Blue IFNα/β cells; settings: HEK-Blue IL-23 cells, 10 ng/mL human recombinant IL-23, SEAP reporter; read-out: IL23 (TYK2 inhibitory activity, IC50)
Method: as §1, §2

[3] = test system: HEK-Blue™ IL-2 reporter cells; assay: HEK-Blue IL-2 reporter assay (SEAP) for determining selectivity; settings: HEK-Blue IL-2 cells, 4 ng/mL human recombinant IL-2, SEAP reporter
Method: (§3) Example B-3: HEK-Blue™ IL-2 and IFNγ Reporter Assays for Determining Selectivity
(§4) HEK-Blue™ IL-2 and IFNγ reporter cells with a stably-integrated cytokine receptor and STAT5 or STAT1 express STAT-inducible secreted embryonic alkaline phosphatase (SEAP) reporter gene upon cytokine stimulation. These cells were plated in DMEM (Gibco) containing 10% heat-inactivated FBS (Gibco) and 100 U/mL PenStrep (Gibco) at 37° C. under 5% CO2 conditions for 20-22 hours. The cells were then pre-treated with serially diluted test compounds for 60 min prior to stimulation with either 4 ng/mL human recombinant IL-2 (Miltenyl Biotech) or 50 ng/mL human recombinant IFNγ (InvivoGen) for 24 hours. SEAP induction was measured using the QUANTI-Blue™ Solution (InvivoGen) according to the manufacturer's instructions.

[4] = test system: HEK-Blue™ IFNγ reporter cells; assay: HEK-Blue IFNγ reporter assay (SEAP) for determining selectivity; settings: 50 ng/mL human recombinant IFNγ, read-out: IFN-γ (SEAP selectivity, IC50)
Method: as §3, §4

T1 sequence (P29597 whole entry): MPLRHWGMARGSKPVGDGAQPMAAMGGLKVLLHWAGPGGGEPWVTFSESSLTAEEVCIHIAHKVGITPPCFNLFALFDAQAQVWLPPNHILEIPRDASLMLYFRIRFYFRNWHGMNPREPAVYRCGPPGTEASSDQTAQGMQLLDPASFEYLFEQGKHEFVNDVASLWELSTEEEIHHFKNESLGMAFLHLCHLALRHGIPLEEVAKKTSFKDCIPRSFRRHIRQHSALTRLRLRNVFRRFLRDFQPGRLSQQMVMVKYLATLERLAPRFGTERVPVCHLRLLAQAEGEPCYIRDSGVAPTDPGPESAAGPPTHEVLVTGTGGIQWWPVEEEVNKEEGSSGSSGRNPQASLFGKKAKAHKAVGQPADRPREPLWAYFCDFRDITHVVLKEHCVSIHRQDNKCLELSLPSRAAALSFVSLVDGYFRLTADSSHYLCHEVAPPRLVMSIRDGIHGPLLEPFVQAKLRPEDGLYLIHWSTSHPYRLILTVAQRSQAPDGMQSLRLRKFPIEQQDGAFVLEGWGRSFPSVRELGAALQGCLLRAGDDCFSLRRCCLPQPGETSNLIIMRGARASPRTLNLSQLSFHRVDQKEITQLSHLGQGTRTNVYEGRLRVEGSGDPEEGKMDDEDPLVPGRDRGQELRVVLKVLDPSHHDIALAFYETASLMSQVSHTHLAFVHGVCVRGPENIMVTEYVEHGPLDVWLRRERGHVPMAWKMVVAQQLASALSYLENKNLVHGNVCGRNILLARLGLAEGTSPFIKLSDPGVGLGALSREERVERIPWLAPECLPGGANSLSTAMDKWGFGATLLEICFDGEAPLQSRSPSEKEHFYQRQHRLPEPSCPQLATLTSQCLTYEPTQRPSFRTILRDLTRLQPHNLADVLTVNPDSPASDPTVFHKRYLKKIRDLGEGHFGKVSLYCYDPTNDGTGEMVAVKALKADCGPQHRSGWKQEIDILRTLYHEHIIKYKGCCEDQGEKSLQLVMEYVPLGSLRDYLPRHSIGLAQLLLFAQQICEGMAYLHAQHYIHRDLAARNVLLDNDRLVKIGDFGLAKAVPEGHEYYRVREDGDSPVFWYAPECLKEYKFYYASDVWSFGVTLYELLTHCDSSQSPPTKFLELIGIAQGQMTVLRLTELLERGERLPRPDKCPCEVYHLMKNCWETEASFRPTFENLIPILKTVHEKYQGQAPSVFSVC

SMILES: [2H]C([2H])([2H])NC(=O)c1nnc(NC(=O)C2COC2)cc1Nc1cccc2c1N(C)Cc1nn(C)c(=O)n1-2 [Compound 19, 4-((2,5-dimethyl-1-oxo-1,2,4,5-tetrahydro-[1,2,4]triazolo[4,3-a]quinoxalin-6-yl)amino)-N-(methyl-d3)-6-(oxetane-3-carboxamido)pyridazine-3-carboxamide]
IC50 (TYK2 Pseudokinase (JH2) [1]): 0.3 to 1 µM | IC50 (TYK2 Pseudokinase (JH2) [2]): > 1 µM

SMILES: CNC(=O)c1nnc(NC(=O)C2CC2)cc1Nc1cccc2c1OCc1nn(C)c(=O)n1-2 [Compound 6, 6-(cyclopropanecarboxamido)-N-methyl-4-((2-methyl-1-oxo-2,4-dihydro-1H-benzo[b][1,2,4]triazolo[4,3-d][1,4]oxazin-6-yl)amino)pyridazine-3-carboxamide]
IC50 (TYK2 Pseudokinase (JH2) [1]): > 1 µM | IC50 (TYK2 Pseudokinase (JH2) [2]): 0.3 to 1 µM

SMILES: CNC(=O)c1nnc(Nc2ccc(F)cn2)cc1Nc1cccc2c1OCc1nnnn1-2 [Compound 4, 4-((4H-benzo[b]tetrazolo[1,5-d][1,4]oxazin-6-yl)amino)-6-((5-fluoropyridin-2-yl)amino)-N-methylpyridazine-3-carboxamide]
IC50 (TYK2 Pseudokinase (JH2) [1]): > 1 µM | IC50 (TYK2 Pseudokinase (JH2) [2]): 0.3 to 1 µM

SMILES: [2H]C([2H])([2H])NC(=O)c1cnc(NC(=O)C2CC2)cc1Nc1cncc2c1N(C)Cc1nn(C)c(=O)n1-2 [Compound 13, 6-(cyclopropanecarboxamido)-4-((2,5-dimethyl-1-oxo-1,2,4,5-tetrahydropyrido[4,3-e][1,2,4]triazolo[4,3-a]pyrazin-6-yl)amino)-N-(methyl-d3)nicotinamide]
IC50 (TYK2 Pseudokinase (JH2) [1]): > 1 µM | IC50 (TYK2 Pseudokinase (JH2) [2]): > 1 µM

SMILES: CNC(=O)c1nnc(Nc2ccc(F)cn2)cc1Nc1cccc2c1OCc1nn(C)c(=O)n1-2 [Compound 7, 6-((5-fluoropyridin-2-yl)amino)-N-methyl-4-((2-methyl-1-oxo-2,4-dihydro-1H-benzo[b][1,2,4]triazolo[4,3-d][1,4]oxazin-6-yl)amino)pyridazine-3-carboxamide]
IC50 (TYK2 Pseudokinase (JH2) [1]): > 1 µM | IC50 (TYK2 Pseudokinase (JH2) [2]): > 1 µM

SMILES: CNC(=O)c1nnc(NC(=O)C2CC2)cc1Nc1cccc2c1OCn1nnnc1-2 [Compound 5, 4-((5H-benzo[e]tetrazolo[1,5-c][1,3]oxazin-7-yl)amino)-6-(cyclopropanecarboxamido)-N-methylpyridazine-3-carboxamide]
IC50 (TYK2 Pseudokinase (JH2) [1]): > 1 µM | IC50 (TYK2 Pseudokinase (JH2) [2]): 0.3 to 1 µM

SMILES: CNC(=O)c1nnc(NC(=O)C2CC2)cc1Nc1cccc2c1OCc1c-2noc1C [Compound 3, 6-(cyclopropanecarboxamido)-N-methyl-4-((3-methyl-4H-chromeno[4,3-c]isoxazol-6-yl)amino)pyridazine-3-carboxamide]
IC50 [3]: > 1 µM | IC50 [4]: > 1 µM | IC50 (TYK2 Pseudokinase (JH2) [2]): 0.03 to 0.3 µM

SMILES: CNC(=O)c1nnc(Nc2ccc(F)cn2)cc1Nc1cccc2c1OCc1c-2noc1C [Compound 1, 6-((5-fluoropyridin-2-yl)amino)-N-methyl-4-((3-methyl-4H-chromeno[4,3-c]isoxazol-6-yl)amino)pyridazine-3-carboxamide]
IC50 (TYK2 Pseudokinase (JH2) [1]): > 1 µM | IC50 (TYK2 Pseudokinase (JH2) [2]): 0.3 to 1 µM

Continued, in another order:

IC50 (TYK2 Pseudokinase (JH2) [1]): 0.03 to 0.3 µM | IC50 (TYK2 Pseudokinase (JH2) [2]): < 0.03 µM
SMILES: [2H]C([2H])([2H])NC(=O)c1cnc(NC(=O)C2CC2)cc1Nc1cccc2c1N(C)Cc1nc(C)oc1-2 [Compound 23, 6-(cyclopropanecarboxamido)-4-((2,5-dimethyl-4,5-dihydrooxazolo[4,5-c]quinolin-6-yl)amino)-N-(methyl-d3)nicotinamide]
IC50 [3]: > 1 µM | IC50 [4]: 0.03 to 0.3 µM

IC50 (TYK2 Pseudokinase (JH2) [1]): < 0.03 µM | IC50 (TYK2 Pseudokinase (JH2) [2]): < 0.03 µM
SMILES: [2H]C([2H])([2H])NC(=O)c1nnc(NC(=O)C2CC2)cc1Nc1cccc2c1N(C)Cc1sc(C)nc1-2 [Compound 35, 6-(cyclopropanecarboxamido)-4-((2,5-dimethyl-4,5-dihydrothiazolo[5,4-c]quinolin-6-yl)amino)-N-(methyl-d3)pyridazine-3-carboxamide]
IC50 [3]: > 1 µM

IC50 (TYK2 Pseudokinase (JH2) [1]): 0.03 to 0.3 µM | IC50 (TYK2 Pseudokinase (JH2) [2]): < 0.03 µM
SMILES: [2H]C([2H])([2H])NC(=O)c1cnc(NC(=O)C2CC2)cc1Nc1nccc2c1N(C)Cc1nn(C)c(=O)n1-2 [Compound 21, 6-(cyclopropanecarboxamido)-4-((2,5-dimethyl-1-oxo-1,2,4,5-tetrahydropyrido[3,4-e][1,2,4]triazolo[4,3-a]pyrazin-6-yl)amino)-N-(methyl-d3)nicotinamide]
IC50 [3]: > 1 µM | IC50 [4]: 0.3 to 1 µM

IC50 (TYK2 Pseudokinase (JH2) [2]): < 0.03 µM
SMILES: [2H]C([2H])([2H])NC(=O)c1nnc(NC(=O)C2CC2)cc1Nc1cccc2c1N(C)Cc1nc(C)oc1-2 [Compound 22, 6-(cyclopropanecarboxamido)-4-((2,5-dimethyl-4,5-dihydrooxazolo[4,5-c]quinolin-6-yl)amino)-N-(methyl-d3)pyridazine-3-carboxamide]
IC50 [3]: 0.3 to 1 µM

IC50 (TYK2 Pseudokinase (JH2) [1]): < 0.03 µM | IC50 (TYK2 Pseudokinase (JH2) [2]): < 0.03 µM
SMILES: [2H]C([2H])([2H])NC(=O)c1nnc(NC(=O)C2CC2)cc1Nc1nccc2c1N(C)Cc1sc(C)nc1-2 [Compound 36, 6-(cyclopropanecarboxamido)-4-((2,5-dimethyl-4,5-dihydrothiazolo[5,4-c][1,7]naphthyridin-6-yl)amino)-N-(methyl-d3)pyridazine-3-carboxamide]
IC50 [3]: 0.3 to 1 µM | IC50 [4]: 0.03 to 0.3 µM

IC50 (TYK2 Pseudokinase (JH2) [1]): 0.3 to 1 µM | IC50 (TYK2 Pseudokinase (JH2) [2]): 0.03 to 0.3 µM
SMILES: [2H]C([2H])([2H])NC(=O)c1nnc(NC(=O)C2CC2)cc1Nc1cccc2c1N(C)C[C@@H]1CCC(=O)N21 [Compound 39, (S)-6-(cyclopropanecarboxamido)-N-(methyl-d3)-4-((5-methyl-1-oxo-1,2,3,3a,4,5-hexahydropyrrolo[1,2-a]quinoxalin-6-yl)amino)pyridazine-3-carboxamide]

IC50 (TYK2 Pseudokinase (JH2) [1]): 0.03 to 0.3 µM | IC50 (TYK2 Pseudokinase (JH2) [2]): < 0.03 µM
SMILES: [2H]C([2H])([2H])NC(=O)c1nnc(NC(=O)C2CC2)cc1Nc1cccc2c1N(C)C[C@H]1CCC(=O)N21 [Compound 38, (R)-6-(cyclopropanecarboxamido)-N-(methyl-d3)-4-((5-methyl-1-oxo-1,2,3,3a,4,5-hexahydropyrrolo[1,2-a]quinoxalin-6-yl)amino)pyridazine-3-carboxamide]
IC50 [3]: 0.3 to 1 µM | IC50 [4]: 0.03 to 0.3 µM

IC50 (TYK2 Pseudokinase (JH2) [1]): 0.03 to 0.3 µM | IC50 (TYK2 Pseudokinase (JH2) [2]): < 0.03 µM
SMILES: [2H]C([2H])([2H])NC(=O)c1nnc(NC(=O)C2CC2)cc1Nc1cccc2c1N(C)CC1CCC(=O)N21 (centres unmarked) [Compound 37, 6-(cyclopropanecarboxamido)-N-(methyl-d3)-4-((5-methyl-1-oxo-1,2,3,3a,4,5-hexahydropyrrolo[1,2-a]quinoxalin-6-yl)amino)pyridazine-3-carboxamide]
IC50 [3]: > 1 µM | IC50 [4]: 0.3 to 1 µM
